Assay results taken from patent publication US20120129872A1, “FUSED HETEROARYL INHIBITORS OF PRO-MATRIX METALLOPROTEINASE ACTIVATION” (priority 2010, published 2012).
Structures can show the parent of a compound that is named as a salt.

Assays:
[1] = biological target: T1, full-length proMMP9(1-707) (SEQ ID NO:1), activation by catalytic MMP3 (Homo sapiens, UniProt P14780, R574P); assay: proMMP9/MMP3 P126 Activation Assay; assay type: biochemical
T1 construct: made in house; host or cells: HEK293 (transient, secreted)
T1 sequence (P14780 20-707 R574P): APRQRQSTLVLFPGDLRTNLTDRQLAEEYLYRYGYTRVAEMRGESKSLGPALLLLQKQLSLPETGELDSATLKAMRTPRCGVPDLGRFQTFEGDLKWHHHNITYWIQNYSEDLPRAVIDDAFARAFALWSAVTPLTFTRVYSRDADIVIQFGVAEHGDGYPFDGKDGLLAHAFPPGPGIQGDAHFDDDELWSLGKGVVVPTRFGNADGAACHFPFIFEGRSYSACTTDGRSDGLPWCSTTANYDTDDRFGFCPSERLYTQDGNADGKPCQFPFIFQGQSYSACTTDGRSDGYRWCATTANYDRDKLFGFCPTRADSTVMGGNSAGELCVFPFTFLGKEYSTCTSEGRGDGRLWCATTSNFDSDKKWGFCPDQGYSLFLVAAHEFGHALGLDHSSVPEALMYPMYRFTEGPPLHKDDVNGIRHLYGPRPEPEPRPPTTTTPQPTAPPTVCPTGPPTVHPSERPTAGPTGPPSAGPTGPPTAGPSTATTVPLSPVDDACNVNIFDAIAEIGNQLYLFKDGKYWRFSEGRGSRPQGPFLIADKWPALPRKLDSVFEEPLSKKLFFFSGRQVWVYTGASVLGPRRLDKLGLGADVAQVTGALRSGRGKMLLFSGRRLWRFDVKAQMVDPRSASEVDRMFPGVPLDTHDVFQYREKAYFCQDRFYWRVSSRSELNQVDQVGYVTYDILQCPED
Procedure: proMMP9/MMP3 P126 Activation Assay
The reaction volume was 50 μL. […] Reactivity of residual MMP3 towards P-126 substrate was minimal under these conditions.

[2] = biological target: T2, proMMP9(67-444;ΔFnII) (SEQ ID NO:5) (Homo sapiens, UniProt P14780, DEL216-390); assay: ThermoFluor binding assay with proMMP9(67-444;ΔFnII)
T2 construct: start methionine (N); made in house; host or cells: E. coli BL21(DE3) RIL
T2 sequence (P14780 with tags, fused parts or gaps DEL216-390): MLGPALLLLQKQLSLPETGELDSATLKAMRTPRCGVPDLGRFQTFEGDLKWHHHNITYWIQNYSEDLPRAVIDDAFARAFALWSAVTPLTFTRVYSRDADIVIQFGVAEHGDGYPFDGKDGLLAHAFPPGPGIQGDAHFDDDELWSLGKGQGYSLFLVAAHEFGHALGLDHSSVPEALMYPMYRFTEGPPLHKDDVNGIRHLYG
Procedure: (§1) The ThermoFluor® (TF) assay is a 384-well plate-based binding assay that measures thermal stability of proteins (Biomol Screen 2001, 6, 429-40; Biochemistry 2005, 44, 5258-66). The experiments were carried out using instruments available from Johnson & Johnson Pharmaceutical Research & Development, LLC. TF dye used in all experiments was […] (1,8-ANS) (Invitrogen: A-47).
(§2) Compounds were arranged in a pre-dispensed plate (Greiner Bio-one: 781280), wherein compounds were serially diluted in 100% DMSO across 11 columns within a series. Columns 12 and 24 were used as DMSO reference and contained no compound. For multiple compound concentration-response experiments, the compound aliquots ([…]) were robotically predispensed directly into black 384-well polypropylene PCR microplates (Abgene: TF-0384/k) using a Cartesian Hummingbird liquid handler (DigiLab, Holliston, Mass.). Following compound dispense, protein and dye solutions were added to achieve the final assay volume of 3 μL. The assay solutions were overlayed with 1 μL of silicone oil (Fluka, type DC 200: 85411) to prevent evaporation.
(§3) Assay plates were robotically loaded onto a thermostatically controlled PCR-type thermal block and then heated from 40 to 90° C. at a ramp-rate of 1° C./min for all experiments. Fluorescence was measured by continuous illumination with UV light (Hamamatsu LC6) supplied via fiber optics and filtered through a band-pass filter (380-400 nm; >60D cutoff). Fluorescence emission of the entire 384-well plate was detected by measuring light intensity using a CCD camera (Sensys, Roper Scientific) filtered to detect 500±25 nm, resulting in simultaneous and independent readings of all 384 wells. A single image with 20-sec exposure time was collected at each temperature, and the sum of the pixel intensity in a given area of the assay plate was recorded vs temperature and fit to standard equations to yield the Tm (J Biomol Screen 2001, 6, 429-40).
(§4) Thermodynamic parameters necessary for fitting compound binding for each proMMP were estimated by differential scanning calorimetry (DSC) and from ThermoFluor® data. The heat capacity of unfolding for each protein was estimated from the molecular weight and from ThermoFluor® dosing data.
ThermoFluor® with proMMP9(67-444;ΔFnII (SEQ ID NO:5)
The protein sample preparations had to include a desalting buffer exchange step via a PD-10 gravity column (GE Healthcare). The desalting buffer exchange was performed prior to diluting the protein to the final assay concentration of 3.5 μM proMMP9(67-444;ΔFnII) (SEQ ID NO:5). The concentration of proMMP9(67-444;ΔFnII) (SEQ ID NO:5) was determined spectrophotometrically based on a calculated extinction coefficient of ε280=33900 M^−1 cm^−1, a calculated molecular weight of 22.6 kDa, and calculated pI of 5.20. ThermoFluor® reference conditions were defined as follows: 80 μg/mL (3.5 μM) proMMP9(67-444;ΔFnII) (SEQ ID NO:5), 50 μM 1,8-ANS, pH 7.0 Buffer (50 mM HEPES pH 7.0, 100 mM NaCl, 0.001% Tween-20, 2.5 mM MgCl2, 300 μM CaCl2). The thermodynamic parameters for proMMP9(67-444;ΔFnII) (SEQ ID NO:5) are as follows: Tm (° C.)=63 (+/−0.1), ΔUH(Tm) (cal mol^−1)=105000(+/−5000), ΔUS(Tm) (cal mol^−1 K^−1)=450, ΔuCp (cal mol^−1 K^−1)=2000.

[3] = biological target: T3, proMMP9(20-445;ΔFnII) (SEQ ID NO:6) (Homo sapiens, UniProt P14780, DEL216-390); assay: ThermoFluor binding assay with proMMP9(20-445;ΔFnII)
T3 construct: start methionine (N); made in house; host or cells: E. coli BL21(DE3) RIL
T3 sequence (P14780 with tags, fused parts or gaps DEL216-390): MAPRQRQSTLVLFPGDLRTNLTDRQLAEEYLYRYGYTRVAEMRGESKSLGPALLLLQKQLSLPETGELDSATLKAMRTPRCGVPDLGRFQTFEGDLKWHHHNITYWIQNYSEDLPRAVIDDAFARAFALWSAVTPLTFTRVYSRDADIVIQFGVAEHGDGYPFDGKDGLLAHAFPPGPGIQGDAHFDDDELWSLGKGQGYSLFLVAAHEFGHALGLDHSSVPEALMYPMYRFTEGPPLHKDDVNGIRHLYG
Procedure: as §1, §2, §3, §4
ThermoFluor® with proMMP9(20-445;ΔFnII (SEQ ID NO:6)
The protein sample preparations included a desalting buffer exchange step via a PD-10 gravity column (GE Healthcare). The desalting buffer exchange was performed prior to diluting the protein to the final assay concentration of 2.8 μM proMMP9(20-445;ΔFnII) (SEQ ID NO:6). The concentration of proMMP9(20-445;ΔFnII) (SEQ ID NO:6) was determined spectrophotometrically based on a calculated extinction coefficient of ε280=39880 M^−1 cm^−1, a calculated molecular weight of 28.2 kDa, and calculated pI of 5.5. ThermoFluor® reference conditions were define as follows: 80 μg/mL (2.8 μM) proMMP9(20-445;ΔFnII) (SEQ ID NO:6), 50 μM 1,8-ANS, pH 7.0 Buffer (50 mM HEPES pH 7.0, 100 mM NaCl, 0.001% Tween-20, 2.5 mM MgCl2, 300 μM CaCl2). The thermodynamic parameters for proMMP9(20-445;ΔFnII) (SEQ ID NO:6) are as follows: Tm (° C.)=72 (+/−0.1), ΔUH(Tm) (cal mol^−1)=160000(+/−5000), ΔUS(Tm) (cal mol^−1 K^−1)=434, ΔUCp (cal mol^−1 K^−1)=2400.

[4] = biological target: T4, proMMP13(1-268) (SEQ ID NO:7) (Homo sapiens, UniProt P45452); assay: ThermoFluor binding assay with proMMP13(1-268)
T4 construct: 6×-histidine tag (C); made in house; host or cells: HEK293 (transient, secreted)
Procedure: as §1, §2, §3, §4
ThermoFluor® with proMMP13(1-268) (SEQ ID NO: 7)
The proMMP13(1-268) (SEQ ID NO:7) protein sample preparations included a desalting buffer exchange step via a PD-10 gravity column (GE Healthcare). The desalting buffer exchange was performed prior to diluting the protein to the final assay concentration of 3.5 μM. The concentration of proMMP13(1-268) (SEQ ID NO:7) was estimated spectrophotometrically based on a calculated extinction coefficient of ε280=37000 M^−1 cm^−1, a calculated molecular weight of 30.8 kDa, and calculated pI of 5.33. ThermoFluor® reference conditions were defined as follows: 100 μg/mL proMMP13(1-268) (SEQ ID NO:7), 25 μM 1,8-ANS, pH 7.0 Buffer (50 mM HEPES pH 7.0, 100 mM NaCl, 0.001% Tween-20, 2.5 mM MgCl2, 300 μM CaCl2). The thermodynamic parameters for proMMP13(1-268) (SEQ ID NO:7) are as follows: Tm (° C.)=67 (+/−0.1), ΔUH(Tm) (cal mol^−1)=107000(+/−5000), ΔUS(Tm) (cal mol^−1 K^−1)=318, ΔUCp (cal mol^−1 K^−1)=2600.

SMILES | IC50 [1] | Kd [2] | Kd [3] | Kd [4]
Cc1c(-c2csc(Nc3cc(C(N)=O)ccc3OC(C)C)n2)sc2ccccc12 [Example 3, 4-Isopropoxy-3-[4-(3-methyl-benzo[b]thiophen-2-yl)-thiazol-2-ylamino]-benzamide•HBr] | 2.5 µM | 0.75 µM | 1.2 µM | 1.9 µM
CC(C)Oc1ccc(C(N)=O)cc1Nc1nc(-c2nc3ccccc3n2C)cs1 [Example 4, 4-Isopropoxy-3-[4-(1-methyl-1H-benzoimidazol-2-yl)-thiazol-2-ylamino]-benzamide•TFA] | ~7 µM | 9.8 µM | 16 µM | 13 µM
CCOc1ccc(S(N)(=O)=O)cc1Nc1nc(-n2c(C)nc3ccccc32)cs1 [Example 5, 4-Ethoxy-3-[4-(2-methyl-benzoimidazol-1-yl)-thiazol-2-ylamino]-benzenesulfonamide] | 13.8 µM | 16 µM | 9.7 µM | 4.8 µM
CCCn1cnc2ccc(-c3csc(Nc4cc(S(N)(=O)=O)ccc4OC(C)C)n3)cc21 [Example 19, 4-Isopropoxy-3-[4-(3-propyl-3H-benzoimidazol-5-yl)-thiazol-2-ylamino]-benzenesulfonamide•TFA] | 0.46 µM | 0.83 µM | 0.17 µM | –
CC(C)Oc1ccc(S(N)(=O)=O)cc1Nc1nc(-c2ccc3sccc3c2)cs1 [Example 20, 3-(4-Benzo[b]thiophen-5-yl-thiazol-2-ylamino)-4-isopropoxy-benzenesulfonamide•TFA] | 3.6 µM | 1.2 µM | 0.45 µM | –
CC(C)Oc1ccc(S(N)(=O)=O)cc1Nc1nc(-c2ccc3occc3c2)cs1 [Example 24, 3-(4-Benzofuran-5-yl-thiazol-2-ylamino)-4-isopropoxy-benzenesulfonamide•TFA] | 3.4 µM | 0.67 µM | 0.24 µM | –
CCCn1cnc2cc(-c3csc(Nc4cc(S(N)(=O)=O)ccc4OC(C)C)n3)ccc21 [Example 26] | 0.47 µM | 1 µM | 0.21 µM | –

Now those with a lower IC50 [1], led by results:

IC50 [1] | Kd [2] | Kd [3] | Kd [4] | SMILES
0.3 µM | 0.85 µM | 0.212 µM | – | CCn1c(C)nc2cc(-c3csc(Nc4cc(S(N)(=O)=O)ccc4OC(C)C)n3)ccc21 [Example 17, 3-[4-(1-Ethyl-2-methyl-1H-benzoimidazol-5-yl)-thiazol-2-ylamino]-4-isopropoxy-benzenesulfonamide•HCl]
0.36 µM | 0.44 µM | 0.14 µM | – | Cc1nc2cc(-c3csc(Nc4cc(S(N)(=O)=O)ccc4OC(C)C)n3)ccc2[nH]1 [Example 18, 4-Isopropoxy-3-[4-(2-methyl-1H-benzoimidazol-5-yl)-thiazol-2-ylamino]-benzenesulfonamide•TFA]
0.32 µM | 1.4 µM | 0.091 µM | – | CC(C)Oc1ccc(S(N)(=O)=O)cc1Nc1nc(-c2ccc3[nH]cnc3c2)cs1 [Example 21, 3-[4-(1H-Benzoimidazol-5-yl)-thiazol-2-ylamino]-4-isopropoxy-benzenesulfonamide•TFA]
0.24 µM | 0.48 µM | 0.17 µM | – | Cc1nc2ccc(-c3csc(Nc4cc(S(N)(=O)=O)ccc4OC(C)C)n3)cc2n1C [Example 22, 3-[4-(2,3-Dimethyl-3H-benzoimidazol-5-yl)-thiazol-2-ylamino]-4-isopropoxy-benzenesulfonamide•TFA]
0.18 µM | 1.1 µM | 0.36 µM | – | Cc1nc2cc(-c3csc(Nc4cc(S(N)(=O)=O)ccc4OC(C)C)n3)ccc2n1C [Example 23, 3-[4-(1,2-Dimethyl-1H-benzoimidazol-5-yl)-thiazol-2-ylamino]-4-isopropoxy-benzenesulfonamide•TFA]
0.24 µM | 1.6 µM | 0.78 µM | – | CCn1cnc2cc(-c3csc(Nc4cc(S(N)(=O)=O)ccc4OC(C)C)n3)ccc21 [Example 25, 3-[4-(1-Ethyl-1H-benzoimidazol-5-yl)-thiazol-2-ylamino]-4-isopropoxy-benzenesulfonamide•TFA]
0.25 µM | 0.47 µM | 0.12 µM | – | CCn1cnc2ccc(-c3csc(Nc4cc(S(N)(=O)=O)ccc4OC(C)C)n3)cc21 [Example 27, 3-[4-(3-Ethyl-3H-benzoimidazol-5-yl)-thiazol-2-ylamino]-4-isopropoxy-benzenesulfonamide•TFA]
0.15 µM | 0.66 µM | 0.1 µM | – | CC(C)Oc1ccc(S(N)(=O)=O)cc1Nc1nc(-c2ccc3c(c2)nc(CO)n3C)cs1 [Example 29]
